Data set [1] deals with HIV-1. Kind of data set: C8166 HIV-1 Luciferase Assay (EC50). It counts as cell-based. Conditions: Human immunodeficiency virus 1, C8166, 72 h. Here is the method: C8166 HIV-1 Luciferase Assay (Ec50)
The assay used to measure inhibition of HIV replication is as described in WO 2004/050643, pages 73-75, incorporated herein by reference, with the following modifications:
Serial dilutions of HIV-1 inhibitors are prepared in complete media from DMSO stock solutions. Eleven serial dilutions of desired concentration are prepared in a 1 mL deep well titer plate (96 wells). The 12th well contains complete media with no inhibitor and serves as the positive control. All samples contain the same concentration of DMSO (<0.1% DMSO). Inhibitor is added, to triplicate wells, of a 96 well tissue culture treated clear view black microtiter plate (Corning Costar catalogue #3904). The total volume per well is 200 μL of media containing the cells and inhibitor. The last row is reserved for uninfected C8166 LTRIuc cells to serve as the background blank control and the first row is media alone.
Count C8166 LTRIuc cells and place in a minimal volume of complete RPMI 1640 in a tissue culture flask (ex. 30×10^6 cells in 10 mL media/25 cm^2 flask). Infect cells with HIV-1 at a moi of 0.005. Incubate cells for 1.5 h at 37° C. on a rotating rack in a 5% CO2 incubator. Resuspend cells in complete RPMI to give a final concentration of 25,000-cells/well. Add cells to wells of 96 well microtiter plate containing inhibitors. Add 25,000 uninfected C8166-LTRIuc cells/well in 200 μL complete RPMI to last row for background control. Incubate cells at 37° C. in 5% CO2 incubator for 3 days.
50 μL Steady Glo (luciferase substrate T112=5 hours Promega catalogue # E2520) is added to each well of the 96 well plate. The relative light units (RLU) of luciferase are determined using a luminescence plate reader. The calculated % inhibition values are used to determine EC50, slope factor (n) and maximum inhibition (Imax).

Data set [2] can be described thus: Caco-2 Permeability Assay. Type of data set: in vitro ADME. As to conditions: human; for Papp A→B at 10 μM: apparent permeability A to B, compound at 10 μM, apical buffer pH 6.0, basolateral buffer pH 7.4, read-out: Papp (cm/sec, *10^−6). The source says:
Caco-2 Permeability Assay Caco-2 cells are purchased from Cell Culture Services as frozen instant cells at a concentration of 1*10^7 cells/vial. DMEM+glutamax-I culture media is purchased from Gibco (10569). Fetal bovine serum (FBS) is purchased from HyClone (SH30396.03). Pennicilin/Streptomycin antibiotics are purchased from Gibco (15140). MEM non-essential amino acids are purchased from Gibco (11140). Hank's balanced salt solution (HBSS) is purchased from Gibco (14025). Bovine serum albumin (BSA) is purchased from Sigma-Aldrich (A7906). MES low moisture is purchased from Sigma-Aldrich (M3671). HEPES is purchased from Sigma-Aldrich (H3375). Dimethyl Sulfoxide (DMSO) is purchased from EMD (MX1457-6). Complete DMEM media is prepared by adding 1 L of FBS, 100 mL of pen/strep and 110 mL of MEM non essential amino acids to 10 L of DMEM+glutamax-I. […] Caco-2 cells are seeded on HTS transwell 24-well plates purchased from Corning (3397). These polycarbonate membrane plates have a diameter of […] and pore size of 0.4 μm. The Caco-2 cells vial is thawed in a 37° C. water bath until only a small ice pellet is left. The vial is then transferred to the laminar flow hood and its exterior is extensively washed with 70% ethanol. The total content of the vial (2 mL) is transferred into a 50 mL tube containing 38 mL of complete DMEM. […] The seeding is done by the Hamilton star robotic station which is controlled with the Venus program. Each well will receive 600 μL of complete DMEM on its basolateral side and 200 μL of cells on its apical side. Each well receives 50 000 cells. The 24-well plates are then returned to an automated Liconic STX110 incubator set at 37° C., 5% CO2 and 100% humidity. The culture media for the cells is changed every two days except on weekends. These cells are maintained for a period of two weeks prior to the running of the permeability assay. Permeability assays are usually performed between day 15 and 18 after the initial seeding. […] Controls for the assay are mannitol for tight junction determination and Digoxin for efflux transporter (p-glycoprotein) expression. On the day of the assay, each compound is diluted to 10 μM in the buffer (apical for A to B). 6 μl of the 5 mM DMSO stock is added to 3 mL of the buffer in a 24-well 10 mL deep plate covered with a lid. The plate containing all the diluted compounds is spun for 10 min at 3000 rpm in a Rotanta 46 RSC centrifuge from Hettich to remove unsoluble compound. This dilution is used to add at the start of the incubation. Each compound is tested in duplicate. On the day of the assay, the culture media of the 24-well plate is removed and replaced with warm HBSS. The HBSS is then also removed and the Apical and Basolatral buffer are added to their respective side of the transwells. These steps are performed by the Hamilton Star robotic station. The plate is then placed in a 37° C. incubator and is left to equilibrate for 30 min. After 30 min of incubation a background sample (25 μL from each well) is taken from the receiver side (Basolateral for A to B), and replenished with warm buffer. These samples and all others afterwards are kept in a 96-well 1 mL plate. To start the assay, the donor compartment (apical for A to B) is emptied and replaced with new buffer containing the compound at 10 μM. Once the compounds are added, the plate is returned to the 37° C. incubator and the timer is started. In order to determine how much compound is actually added to each well, a 50 μL sample is taken from each compound dilution, this sample is refered to as the load. These steps and the following are performed by the Tecan Freedom EVO robotic station controlled via the Gemini software. For A-to-B Assay: Samples (190 μL) are taken from each basolateral (receiver) chamber at time points 0, 60, 120 and 180 min or at time points 0, 30, 60 and 90 min. From the 190 μL taken, 50 μL is transferred to the receiving plate and 140 μL is discarded.

Consider 29 compounds from patent US9399645B2, “Inhibitors of HIV replication” (Boehringer Ingelheim International GmbH, priority 2011, dated 2016).

Broadly, the EC50 is the concentration at which the effect is half-maximal. A higher EC50 goes with a less potent agent. The compound `CN(C)c1ccc(-c2nc(=O)n(CCC3CCCO3)c3c2oc2ccc(-c4cncs4)cc23)cn1` (stereo not shown) [Compound 1035] came in with an EC50 in data set [1] of 9.4 nM. Besides, the Papp A→B at 10 μM in data set [2] turned out to be 11.5 ×10⁻⁶ cm/s.
For `CNc1ccc(-c2nc(=O)n(CCC3CCCCO3)c3c2oc2ccc(-c4cnn(C)c4)cc23)cn1` (stereo not shown) [Compound 1036], in that order: 6.8 nM and 7.6 ×10⁻⁶ cm/s.
The like results for `C[C@@H]1C[C@H](n2c(=O)nc(-c3cnn(C)c3)c3oc4ccc(-c5cnn(C)c5)cc4c32)C[C@H](C)O1` [Compound 1039] were, in that order, 36 nM and 16.8 ×10⁻⁶ cm/s.
For `CC[C@H]1C[C@@H](n2c(=O)nc(-c3cnn(C)c3)c3oc4ccc(-c5cccnc5)cc4c32)CCO1` [Compound 1040], in that order: 12.8 nM and 19.2 ×10⁻⁶ cm/s.
`CC[C@H]1C[C@@H](n2c(=O)nc(-c3cnn(C)c3)c3oc4ccc(-c5cnn(CC)c5)cc4c32)CCO1` [Compound 1041] displayed an EC50 in data set [1] of 6.6 nM. The Papp A→B at 10 μM in data set [2] is 26.9 ×10⁻⁶ cm/s.
The like results for `CC[C@H]1C[C@@H](n2c(=O)nc(-c3cnn(C)c3)c3oc4cc(F)c(-c5cnn(C)c5)cc4c32)CCO1` [Compound 1042] were, in that order, 6.9 nM and 23.4 ×10⁻⁶ cm/s.
The like results for `CC[C@H]1C[C@@H](n2c(=O)nc(-c3cnn(C)c3)c3oc4cc(F)c(-c5cnc(C)o5)cc4c32)CCO1` [Compound 1044] were, in that order, 22 nM and 12.4 ×10⁻⁶ cm/s.
The like results for `CC[C@H]1C[C@@H](n2c(=O)nc(-c3cnn(C)c3)c3oc4cc(F)c(-c5ccc(CO)nc5)cc4c32)CCO1` [Compound 1045] were, in that order, 17.3 nM and 9.4 ×10⁻⁶ cm/s.
In data set [1], `CC[C@H]1C[C@@H](n2c(=O)nc(-c3cnn(C)c3)c3oc4cc(F)c(-c5ccc(C(C)O)nc5)cc4c32)CCO1` (stereo partly shown) [Compound 1046] displayed an EC50 of 110 nM. Besides, the Papp A→B at 10 μM in data set [2] was 17.9 ×10⁻⁶ cm/s.
For `CC[C@H]1C[C@@H](n2c(=O)nc(-c3cnn(C)c3)c3oc4cc(Cl)c(-c5cnn(C)c5)cc4c32)CCO1` [Compound 1048], in that order: 6 nM and 22.1 ×10⁻⁶ cm/s.
As to `CC[C@H]1C[C@@H](n2c(=O)nc(-c3cnn(C)c3)c3oc4cc(C)c(-c5cnn(C)c5)cc4c32)CCO1` [Compound 1050], in data set [1], the EC50 was 7.7 nM. The Papp A→B at 10 μM in data set [2] is 19.1 ×10⁻⁶ cm/s.
Turning to `CC[C@H]1C[C@@H](n2c(=O)nc(-c3cnn(C)c3)c3oc4cc(C#N)c(-c5cccnc5)cc4c32)CCO1` [Compound 1051], the EC50 in data set [1] amounted to 220 nM. Also, the Papp A→B at 10 μM in data set [2] stood at 15.4 ×10⁻⁶ cm/s.
In data set [1], `C[C@@H]1C[C@H](n2c(=O)nc(-c3cnn(C)c3)c3oc4cc(C#N)c(-c5cnn(C)c5)cc4c32)C[C@H](C)O1` [Compound 1052] registered an EC50 of 150 nM. Further, the Papp A→B at 10 μM in data set [2] was 18.2 ×10⁻⁶ cm/s.
In the case of `CC[C@H]1C[C@@H](n2c(=O)nc(-c3cnn(C)c3)c3oc4cc(C#N)c(-c5cnn(C)c5)cc4c32)C[C@@H](C)O1` [Compound 1053], it took 43 nM to reach a half-maximal effect in data set [1] (EC50). Besides, the Papp A→B at 10 μM in data set [2] came out at 22.2 ×10⁻⁶ cm/s.
For `CC[C@H]1C[C@@H](n2c(=O)nc(-c3cnn(C)c3)c3oc4cc(C#N)c(-c5ccn(C)n5)cc4c32)CCO1` [Compound 1054], in that order: 32.2 nM and 20.3 ×10⁻⁶ cm/s.
For `CC[C@H]1C[C@@H](n2c(=O)nc(-c3cnn(C)c3)c3oc4cc(OC)c(-c5cnn(C)c5)cc4c32)CCO1` [Compound 1055], in that order: 3.6 nM and 8.42 ×10⁻⁶ cm/s.
For `COc1cc2oc3c(-c4cnn(C)c4)nc(=O)n(CC[C@@H]4CCCO4)c3c2cc1-c1cnn(C)c1` [Compound 1056], in that order: 8.3 nM and 6.7 ×10⁻⁶ cm/s.
As for `CC[C@H]1C[C@@H](n2c(=O)nc(-c3cnn(C)c3)c3oc4c(OC)cc(-c5cnn(C)c5)cc4c32)CCO1` [Compound 1057], it took 2.2 nM to reach a half-maximal effect in data set [1] (EC50). Further, in data set [2], the Papp A→B at 10 μM worked out at 14.9 ×10⁻⁶ cm/s.
In data set [1], `CC[C@H]1C[C@@H](n2c(=O)nc(-c3cnn(C)c3)c3oc4c(C)cc(-c5cnn(C)c5)cc4c32)CCO1` [Compound 1058] gave an EC50 of 0.6 nM. Moreover, the Papp A→B at 10 μM in data set [2] was 16.6 ×10⁻⁶ cm/s.
In data set [1], `CC[C@H]1C[C@@H](n2c(=O)nc(-c3cnn(C)c3)c3oc4c(C#N)c(C)c(-c5cnn(C)c5)cc4c32)CCO1` [Compound 1060] returned an EC50 of 140 nM. Besides, the Papp A→B at 10 μM in data set [2] came out at 13 ×10⁻⁶ cm/s.
For `CC[C@H]1C[C@@H](n2c(=O)nc(-c3cnn(C)c3)c3oc4ncc(-c5cnn(C)c5)cc4c32)CCO1` [Compound 1061], in that order: 20.3 nM and 9.3 ×10⁻⁶ cm/s.
The like results for `CNc1ccc(-c2nc(=O)n(CCC3CCCO3)c3c2oc2ncc(-c4cnco4)cc23)cn1` (stereo not shown) [Compound 1066] were, in that order, 110 nM and 8.3 ×10⁻⁶ cm/s.
The like results for `CCn1cc(-c2cnc3oc4c(-c5ccc(NC)nc5)nc(=O)n(CCC5CCCCO5)c4c3c2)cn1` (stereo not shown) [Compound 1067] were, in that order, 40 nM and 5.3 ×10⁻⁶ cm/s.
Turning to `CNc1ccc(-c2nc(=O)n(CCC3CCCO3)c3c2oc2ncc(-c4cnn(CC5CC5)c4)cc23)cn1` (stereo not shown) [Compound 1068], a half-maximal response in data set [1] (EC50) required 78 nM. The Papp A→B at 10 μM in data set [2] was determined as 8.1 ×10⁻⁶ cm/s.
On to `CC[C@H]1C[C@@H](n2c(=O)nc(-c3cnn(CC)c3)c3oc4ncc(-c5cnn(CC)c5)cc4c32)CCO1` [Compound 1072], for which the response in data set [1] was half-maximal at 110 nM (EC50). In data set [2], the Papp A→B at 10 μM was 21.4 ×10⁻⁶ cm/s.
For `Cn1cc(-c2cnc3oc4c(-c5cnn(C)c5)nc(=O)n(CCC5CCCCO5)c4c3c2)cn1` (stereo not shown) [Compound 1074], in that order: 90 nM and 11 ×10⁻⁶ cm/s.
The compound `CC[C@H]1C[C@@H](n2c(=O)nc(-c3cnn(C)c3)c3oc4cnc(-c5cnn(C)c5)cc4c32)CCO1` [Compound 1076] returned an EC50 in data set [1] of 5.9 nM. In data set [2], this compound came in with a Papp A→B of 17.9 ×10⁻⁶ cm/s.
As for `CC[C@H]1C[C@@H](n2c(=O)nc(-c3ccc(NC)nc3)c3oc4cnc(-c5cnn(C)c5)cc4c32)CCO1` [Compound 1077], the response in data set [1] was half-maximal at 6 nM (EC50). For the same compound, the Papp A→B at 10 μM in data set [2] turned out to be 14.7 ×10⁻⁶ cm/s.
In data set [1], `CC[C@H]1C[C@@H](n2c(=O)nc(-c3cnn(C)c3)c3oc4nc(C)c(-c5cnco5)cc4c32)CCO1` [Compound 1080] had an EC50 of 120 nM. The Papp A→B at 10 μM in data set [2] was 12.4 ×10⁻⁶ cm/s.
